Data: PubChem BioAssay (NCI)
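Dose response: 5 concentrations. Exposure: 48 h. Format: 96-well plates. Endpoint: linear interpolation; highest concentration if not reached. GI50 is the concentration that inhibits growth by half. TGI: concentration producing complete growth inhibition.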

Key:
Test in all cases: DTP human tumour cell line panel, 48 h
786-0 renal = tested on: 786-0 renal
A498 renal = tested on: A498 renal
A549 NSCLC = tested on: A549 NSCLC
ACHN renal = tested on: ACHN renal
BT-549 breast = tested on: BT-549 breast
CAKI-1 renal = tested on: CAKI-1 renal
CCRF-CEM leukemia = tested on: CCRF-CEM leukemia
COLO 205 colon = tested on: COLO 205 colon
DU-145 prostate = tested on: DU-145 prostate
EKVX NSCLC = tested on: EKVX NSCLC
HCC-2998 colon = tested on: HCC-2998 colon
HCT-116 colon = tested on: HCT-116 colon
HCT-15 colon = tested on: HCT-15 colon
HL-60(TB) leukemia = tested on: HL-60(TB) leukemia
HOP-62 NSCLC = tested on: HOP-62 NSCLC
HOP-92 NSCLC = tested on: HOP-92 NSCLC
HS 578T breast = tested on: HS 578T breast
HT29 colon = tested on: HT29 colon
IGROV1 ovarian = tested on: IGROV1 ovarian
K-562 leukemia = tested on: K-562 leukemia
KM12 colon = tested on: KM12 colon
LOX IMVI melanoma = tested on: LOX IMVI melanoma
M14 melanoma = tested on: M14 melanoma
MALME-3M melanoma = tested on: MALME-3M melanoma
MCF7 breast = tested on: MCF7 breast
MDA-MB-231 breast = tested on: MDA-MB-231 breast
MDA-MB-435 = tested on: MDA-MB-435
MOLT-4 leukemia = tested on: MOLT-4 leukemia
NCI-H226 lung = tested on: NCI-H226 lung
NCI-H23 lung = tested on: NCI-H23 lung
NCI-H460 lung = tested on: NCI-H460 lung
NCI-H522 lung = tested on: NCI-H522 lung
NCI/ADR-RES ovarian = tested on: NCI/ADR-RES ovarian
OVCAR-3 ovarian = tested on: OVCAR-3 ovarian
OVCAR-4 ovarian = tested on: OVCAR-4 ovarian
OVCAR-5 ovarian = tested on: OVCAR-5 ovarian
OVCAR-8 ovarian = tested on: OVCAR-8 ovarian
PC-3 prostate = tested on: PC-3 prostate
RPMI-8226 leukemia = tested on: RPMI-8226 leukemia
RXF 393 renal = tested on: RXF 393 renal
SF-268 CNS = tested on: SF-268 CNS
SF-295 CNS = tested on: SF-295 CNS
SF-539 CNS = tested on: SF-539 CNS
SK-MEL-2 melanoma = tested on: SK-MEL-2 melanoma
SK-MEL-28 melanoma = tested on: SK-MEL-28 melanoma
SK-MEL-5 melanoma = tested on: SK-MEL-5 melanoma
SK-OV-3 ovarian = tested on: SK-OV-3 ovarian
SN12C renal = tested on: SN12C renal
SNB-19 CNS = tested on: SNB-19 CNS
SNB-75 CNS = tested on: SNB-75 CNS
SR leukemia = tested on: SR leukemia
SW-620 colon = tested on: SW-620 colon
T-47D breast = tested on: T-47D breast
TK-10 renal = tested on: TK-10 renal
U251 CNS = tested on: U251 CNS
UACC-257 melanoma = tested on: UACC-257 melanoma
UACC-62 melanoma = tested on: UACC-62 melanoma
UO-31 renal = tested on: UO-31 renal

SMILES: O=C(Nc1ccc(I)cc1)c1cc([N+](=O)[O-])ccc1O
- GI50 (786-0 renal): 6.4 µM
- TGI (786-0 renal): > 100 µM
- GI50 (A498 renal): 1.45 µM
- TGI (A498 renal): 5.17 µM
- GI50 (A549 NSCLC): 11.6 µM
- TGI (A549 NSCLC): > 100 µM
- GI50 (ACHN renal): 9.28 µM
- TGI (ACHN renal): > 100 µM
- GI50 (BT-549 breast): 5.36 µM
- TGI (BT-549 breast): 27.1 µM
- GI50 (CAKI-1 renal): 5.39 µM
- TGI (CAKI-1 renal): > 100 µM
- GI50 (CCRF-CEM leukemia): 3.69 µM
- TGI (CCRF-CEM leukemia): 50.1 µM
- GI50 (COLO 205 colon): 10.9 µM
- TGI (COLO 205 colon): 28.1 µM
- GI50 (DU-145 prostate): 17 µM
- TGI (DU-145 prostate): > 100 µM
- GI50 (EKVX NSCLC): 6.72 µM
- TGI (EKVX NSCLC): > 100 µM
- GI50 (HCC-2998 colon): 3.82 µM
- TGI (HCC-2998 colon): 84 µM
- GI50 (HCT-116 colon): 6.21 µM
- TGI (HCT-116 colon): 31.7 µM
- GI50 (HCT-15 colon): 5.77 µM
- TGI (HCT-15 colon): 38.9 µM
- GI50 (HL-60(TB) leukemia): 5.44 µM
- TGI (HL-60(TB) leukemia): 57.8 µM
- GI50 (HOP-62 NSCLC): 16.4 µM
- TGI (HOP-62 NSCLC): > 100 µM
- GI50 (HOP-92 NSCLC): 0.709 µM
- TGI (HOP-92 NSCLC): 3.99 µM
- GI50 (HS 578T breast): 3.13 µM
- TGI (HS 578T breast): 29.3 µM
- GI50 (HT29 colon): 13.3 µM
- TGI (HT29 colon): 89.7 µM
- GI50 (IGROV1 ovarian): 13.8 µM
- TGI (IGROV1 ovarian): > 100 µM
- GI50 (K-562 leukemia): 4.69 µM
- TGI (K-562 leukemia): > 100 µM
- GI50 (KM12 colon): 5.36 µM
- TGI (KM12 colon): 40.9 µM
- GI50 (LOX IMVI melanoma): 4.44 µM
- TGI (LOX IMVI melanoma): 61 µM
- GI50 (M14 melanoma): 12.8 µM
- TGI (M14 melanoma): 62.8 µM
- GI50 (MALME-3M melanoma): 19.9 µM
- TGI (MALME-3M melanoma): 70.3 µM
- GI50 (MCF7 breast): 3.93 µM
- TGI (MCF7 breast): > 100 µM
- GI50 (MDA-MB-231 breast): 10 µM
- TGI (MDA-MB-231 breast): 53.1 µM
- GI50 (MDA-MB-435): 6.91 µM
- TGI (MDA-MB-435): > 100 µM
- GI50 (MOLT-4 leukemia): 4.67 µM
- TGI (MOLT-4 leukemia): 51.3 µM
- GI50 (NCI-H226 lung): 6.19 µM
- TGI (NCI-H226 lung): 80.4 µM
- GI50 (NCI-H23 lung): 4.07 µM
- TGI (NCI-H23 lung): > 100 µM
- GI50 (NCI-H460 lung): 6.42 µM
- TGI (NCI-H460 lung): 56.8 µM
- GI50 (NCI-H522 lung): 2.92 µM
- TGI (NCI-H522 lung): 15.9 µM
- GI50 (NCI/ADR-RES ovarian): 5.85 µM
- TGI (NCI/ADR-RES ovarian): > 100 µM
- GI50 (OVCAR-3 ovarian): 3.74 µM
- TGI (OVCAR-3 ovarian): 32.1 µM
- GI50 (OVCAR-4 ovarian): 4.57 µM
- TGI (OVCAR-4 ovarian): 90.8 µM
- GI50 (OVCAR-5 ovarian): 27.9 µM
- TGI (OVCAR-5 ovarian): > 100 µM
- GI50 (OVCAR-8 ovarian): 7.21 µM
- TGI (OVCAR-8 ovarian): 25.8 µM
- GI50 (PC-3 prostate): 3.42 µM
- TGI (PC-3 prostate): 23.4 µM
- GI50 (RPMI-8226 leukemia): 2.65 µM
- TGI (RPMI-8226 leukemia): 8.78 µM
- GI50 (RXF 393 renal): 2.86 µM
- TGI (RXF 393 renal): 23.7 µM
- GI50 (SF-268 CNS): 7.03 µM
- TGI (SF-268 CNS): > 100 µM
- GI50 (SF-295 CNS): 4.02 µM
- TGI (SF-295 CNS): 39.8 µM
- GI50 (SF-539 CNS): 11.4 µM
- TGI (SF-539 CNS): 80 µM
- GI50 (SK-MEL-2 melanoma): 3.54 µM
- TGI (SK-MEL-2 melanoma): 20.1 µM
- GI50 (SK-MEL-28 melanoma): 9.53 µM
- TGI (SK-MEL-28 melanoma): 72.3 µM
- GI50 (SK-MEL-5 melanoma): 3.63 µM
- TGI (SK-MEL-5 melanoma): 18.6 µM
- GI50 (SK-OV-3 ovarian): 6.15 µM
- TGI (SK-OV-3 ovarian): > 100 µM
- GI50 (SN12C renal): 4.61 µM
- TGI (SN12C renal): 75.4 µM
- GI50 (SNB-19 CNS): 5.5 µM
- TGI (SNB-19 CNS): > 100 µM
- GI50 (SNB-75 CNS): 8.89 µM
- TGI (SNB-75 CNS): 67 µM
- GI50 (SR leukemia): 6.09 µM
- TGI (SR leukemia): 46.5 µM
- GI50 (SW-620 colon): 15.5 µM
- TGI (SW-620 colon): 54.5 µM
- GI50 (T-47D breast): 3.87 µM
- TGI (T-47D breast): > 100 µM
- GI50 (TK-10 renal): 9.9 µM
- TGI (TK-10 renal): > 100 µM
- GI50 (U251 CNS): 6.4 µM
- TGI (U251 CNS): 66.1 µM
- GI50 (UACC-257 melanoma): 6.89 µM
- TGI (UACC-257 melanoma): 34.6 µM
- GI50 (UACC-62 melanoma): 3.38 µM
- TGI (UACC-62 melanoma): 14.1 µM
- GI50 (UO-31 renal): 3.77 µM
- TGI (UO-31 renal): 47.6 µM
